Laboratory results: patent publication US20190086391A1, “METHOD AND SYSTEM FOR CONTINUOUS BIOSENSING” (Yissum Research Development Company of the Hebrew …, priority 2016, published 2019)
Several values for one entry are separate records, joined by “and”; a condition that tells them apart may be missing. Identical values can stand only once. Like-named read-outs stand apart in the source and are kept apart here. One block for each compound: values may come before it.

What was measured:
[1] = test system: primary human hepatocytes; conditions: cited from earlier work
HepG2/C3A cells [2] = test: JC-1 mitochondrial membrane potential staining; type: cell-based, human; conditions: 50 μM
Protocol: JC-1 cell permeable dye was purchased from Life Technologies (New York, N.Y.). HepG2/C3A cells were incubated with 50 μM of troglitazone or rotenone for varying durations. To evaluate mitochondrial membrane potential at each time point, cells were incubated with 5 μM JC-1 dye for 30 min, washed with PBS and imaged by confocal microscopy on a LSM700 (Zeiss, Germany). […] Consequently, mitochondrial depolarization is quantified by dividing red over green fluorescence intensity.

HepG2/C3A spheroids = test: Offline glutamine uptake in bioreactor perfusate; type: cell-based, human; conditions: 50 μM
Protocol: Glutamine concentration was determined using glutamine and glutamate determination kit (Sigma-Aldrich). Bioreactors containing HepG2/C3A spheroids were set up as described in the main text and perfused at 2 μl/min. Perfusate samples were collected for 60 minutes for a total of 120 μl per sample. Glutamine was quantified according to manufacturer directions.

HepG2/C3A cells [3] = test: Real-time oxygen uptake in perfused microwell bioreactor; type: cell-based, human
Protocol: (§1) PDMS microwell inserts were sterilized with 70% EtOH and 30 min exposure to UV light prior to cell seeding. Cells were trypsinized, counted and centrifuged at 300×g for 5 min at 4° C. The pellet was then mixed with […] CPOx-50-RuP oxygen-sensing beads (Colibri Photonics, Germany) and resuspended in 100 μl of ice-cold solution of collagen type I (BD Biosciences, USA) for a final seeding density of 4×10^6 cells/ml. The PDMS microwell insert was placed on ice and coated with ice-cold collagen solution for 5 min to remove air bubbles. Then 100 μl of collagen type I suspension containing cells and oxygen-sensing beads was layered on top the wells and incubated for 10 min on ice. The low temperature prevented premature collagen polymerization and the induction of cellular stress response pathways. Afterwards, excess cell and microbead suspension was gently wiped off the microwell insert using a sterile glass coverslip leading to a concentration of 100,000 cells and 20 oxygen-sensing beads per well. Variance in cell density between individual wells and between bioreactors was less than 10% measured by DNA content. The inoculated microwell insert was then incubated for 5 min at 37° C. to polymerize the collagen. Following polymerization, the insert was immersed in 5 ml of cell culture medium and incubated for 20 min at 37° C. prior to being sealed in the bioreactor housing. Bioreactors were then placed in a climate control chamber (Evotec, Germany) on an IX81 fluorescence microscope (Olympus, Japan). Bioreactors were continuously perfused with cell culture medium noted above supplemented with 10 mM HEPES and 1% DMSO at a flow rate of 2 μl/min. The automated and motorized microscope stage was equipped with a holder for three microreactors, allowing three experiments to run simultaneously.
(§2) Troglitazone (T2573), and rotenone (R8875) were purchased from Sigma-Aldrich (Schnelldorf, Germany) and diluted from H2O or DMSO stock concentration 1:1000 into HepG2/C3A culture medium. Exposure onset was calculated to within ±1 min based on volumetric flow rate, considering the length of the tubing and bioreactor volume.
(§3) Real-time oxygen measurements were performed optically using lifetime-based luminescencequenching as previously described (11). […] Excited by a sinusoidal amplitude-modulated 532 nm LED source, the microbeads emit a sinusoidal amplitudemodulated light at 605 nm that is shifted in phase due to oxygen quenching (FIG. 2D). To overcome the superposition of in-phase background fluorescence that alters the phase of the detected signal, a 53.5 kHz and 31.3 kHz two-frequency phase modulation was used. This allowed screening out background interference (26-28). Measurements were carried out by averaging 5 consecutive 3 second exposures, followed by 17 seconds intervals, for a total of 100 seconds. Measurements were taken every 15 minutes for as long as 28 days with no phototoxicity, signal drift, or relevant loss of signal intensity. The apparatus consists of the OPAL package (Colibri Photonics, Germany) that is comprised of a control module, 532 nm LED, and a photomultiplier (PMT) detector mounted on the ocular of an […] Olympus microscope (Olympus, Japan). A filter cube with 531/40 (Ex), 607/70 (Em) was inserted in the optical light path during measurements.

[4] = as above; type: cell-based, human; conditions: human
Protocol: as §1, §2, §3

HepG2/C3A cells [5] = test: Flux balance analysis of metabolic pathways and ATP production; type: cell-based, human; conditions: 50 μM; for ATP production, % of untreated cells: calculated from flux balance; for Glutaminolysis (calculated metabolic flux) / Glycolysis (calculated metabolic flux) / Lipogenesis (calculated metabolic flux) / Respiration (calculated metabolic flux): troglitazone 6 hours, rotenone 3 hours
Protocol: Glucose uptake, oxygen uptake and lactate production rates were measured by calculating the change in metabolite concentration between the bioreactor in- and outflow, as function of perfusion rate and cell number as described above. Metabolic rates were calculated assuming negligible contribution to oxygen uptake by fatty acid oxidation and enzymatic activity. Low level of lipids in the culture medium ensured that fatty acid uptake was 50-fold lower than glucose while glutamine contribution to the Krebs cycle was minor (results).
Based on these assumptions, oxidative phosphorylation flux was calculated by dividing oxygen uptake rate by six. 32 ATP molecules generated by complete oxidation of 1 molecule of glucose were estimated. Glycolysis flux was calculated by dividing lactate production rate by two, with maximal rate defined by glucose uptake rate minus the oxidative phosphorylation flux. ATP production in glycolysis was estimated to be 2 molecules per molecule of glucose. It was assumed that any glucose left over was directed toward lipogenesis, as the contribution of pentose phosphate pathway in nonproliferating cells is minor (31). Finally, it was assumed that excess lactate was produced by glutaminolysis, and confirmed the assumption using offline measurement of glutamine uptake (FIGS. 10A and 10B). ATP production in glutaminolysis was estimated to be 3 molecules per molecule of lactate generated.

HepG2/C3A cells [6] = test: CDFDA staining for cholestasis (CDF retention, MRP2); type: cell-based, human; conditions: 24 hours exposure to 200 μM; due to inhibition of MRP2
Protocol: PMDS microwell inserts were removed from the bioreactor following 24 hours exposure to rotenone or troglitazone. Cholestasis was evaluated using 5(6)-carboxy-2′, 7′-dichlorofluorescein diacetate (CDFDA) cell permeable dye which is metabolized to fluorescent CDF and secreted to active bile canaliculi by active multidrug resistance-associated protein 2 (MRP2). Briefly, cells were incubated with 2 μg/mL of CDFDA and 1 μg/mL of Hoechst 33342 for 20 min, and washed with PBS. Number of bile canaliculi foci was normalized for number of Hoechst-labeled nuclei. Apoptosis was evaluated using DeadEnd™ fluorometric TUNEL system (Promega, USA) according to manufacturer directions. Briefly, cells were fixed in 4% paraformaldehyde, permeabilized and exposed to fluorescein-12-dUTP and terminal deoxynucleotidyl transferase (TdT), dyeing apoptotic nuclei green. The reaction was subsequently stopped and the cells counterstained for Hoechst. A percent apoptotic nucleus was calculated by dividing the number of TUNEL to Hoechst positive nuclei.

SMILES: C=C(C)[C@H]1Cc2c(ccc3c2O[C@@H]2COc4cc(OC)c(OC)cc4[C@@H]2C3=O)O1 [rotenone]
CC50 [1]: 2 µM
increase in mitochondrial membrane potential (MMP) (HepG2/C3A cells [2]; within 3 hours of exposure): 40±6%
effect on mitochondrial membrane potential (MMP), in words (HepG2/C3A cells [2]; rotenone after 3 hours, troglitazone along 6 hours): significant increase
glutamine uptake (outlet-inlet), in words (HepG2/C3A spheroids): increase in glutamine uptake
increase in glutamine consumption (offline measurement) (HepG2/C3A spheroids): 30±4 folds
oxygen uptake, % of normal respiration (HepG2/C3A cells [3]; 1 μM, 12 hours exposure): 35%
reduction of oxygen uptake (HepG2/C3A cells [3]; 50 μM): 80%
oxygen uptake, % of normal respiration (HepG2/C3A cells [3]; 50 μM, 12 hours exposure): 27%
oxygen uptake, % of normal respiration (HepG2/C3A cells [3]; 200 μM, 12 hours exposure): 15%
time to onset of mitochondrial damage (HepG2/C3A cells [3]; 0.2 mM): ≤ 6 min
time within which the majority of the effect on oxygen uptake occurred (HepG2/C3A cells [3]; 1, 50, 200 μM): ≤ 60 min
time to onset of mitochondrial damage, in words (HepG2/C3A cells [3]; dose-dependent): in minutes rather than hours
CC50 at 12 h ([4]; after 12 hours, read-out: TC50 (dose dependence of oxygen uptake)): 12.5 µM
decrease in oxidative phosphorylation flux (HepG2/C3A cells [5]; after 3 hours of exposure): 90%
increase in glycolysis (flux) (HepG2/C3A cells [5]; after 3 hours of exposure): 34%
ATP production, % of untreated cells (HepG2/C3A cells [5]): less than 36%
Glutaminolysis (calculated metabolic flux) (HepG2/C3A cells [5]): 0.56 nmol/min/10^6 cells
Glycolysis (calculated metabolic flux) (HepG2/C3A cells [5]): 0.97 nmol/min/10^6 cells
Lipogenesis (calculated metabolic flux) (HepG2/C3A cells [5]): 0 nmol/min/10^6 cells
Respiration (calculated metabolic flux) (HepG2/C3A cells [5]): 0.03 nmol/min/10^6 cells

increase in intracellular accumulation of bile acids / CDF staining (cholestasis) (HepG2/C3A cells [6]): 4.5 fold and 4.5±0.6 fold
SMILES: Cc1c(C)c2c(c(C)c1O)CCC(C)(COc1ccc(CC3SC(=O)NC3=O)cc1)O2 (stereo not drawn) [troglitazone]
CC50 ([1]; read-out: TC50 in primary hepatocytes): 100 µM
increase in mitochondrial membrane potential (MMP) (HepG2/C3A cells [2]; over 6 hours of exposure): 33±7%
increase in glutamine consumption (offline measurement) (HepG2/C3A spheroids): 5±2 folds
reduction of oxygen uptake (HepG2/C3A cells [3]; 50 μM): 10%
oxygen uptake, % of normal respiration (HepG2/C3A cells [3]; 350 μM, 24 hours exposure): 32%
oxygen uptake, % of normal respiration (HepG2/C3A cells [3]; 500 μM, 24 hours exposure): 15%
oxygen uptake, % of normal respiration (HepG2/C3A cells [3]; 2000 μM, 24 hours exposure): 8%
CC50 at 24 h [4]: 285 µM
decrease in oxidative phosphorylation flux (HepG2/C3A cells [5]; after 6 hours of exposure): 23%
increase in glycolysis (flux) (HepG2/C3A cells [5]; after 6 hours of exposure): 51%
ATP production, % of untreated cells (HepG2/C3A cells [5]): 97%
Glutaminolysis (calculated metabolic flux) (HepG2/C3A cells [5]): 0.02 nmol/min/10^6 cells
Glycolysis (calculated metabolic flux) (HepG2/C3A cells [5]): 2.25 nmol/min/10^6 cells
Lipogenesis (calculated metabolic flux) (HepG2/C3A cells [5]): 0 nmol/min/10^6 cells
Respiration (calculated metabolic flux) (HepG2/C3A cells [5]): 0.25 nmol/min/10^6 cells
